Laboratory results reported in patent US20240299400A1, “Transcription Factor GLI1 Inhibitors and Uses Thereof” (University of Connecticut, priority 2023, published 2024).

Columns and labels:
[1] = molecular target: T1, RET (Homo sapiens, UniProt P07949); experiment: ZLyte kinase assay, RET; type: biochemical; settings: average of three replicates
T1 construct: purchased ThermoFisher Scientific (Madison, WI, USA), contract service
Description: (§1) Kinase screening experiments. Kinase inhibition/binding experiments were performed by ThermoFisher Scientific (Madison, WI, USA) as a contract service, utilizing their default protocols [G. Yernale, A comprehensive review on the biological interest of quinoline and its derivatives. Bioorg. Med. Chem. 32 (2021) 115973]. Briefly, for ZLyte assay, compound in DMSO (100 nL), kinase buffer (2.4 μL), peptide/kinase mixture (5 μL), and ATP solution (2.5 μL) were mixed in a black 384-well plate. Following a 30 s plate shake to mix reagents, the kinase assay mixture was incubated at RT for 60 min. Following addition of the development reagent solution to each well, another 60 min incubation was performed at RT for reaction development. Fluorescent signal was recorded and subsequently analyzed.

[2] = molecular target: T2, PIK3C2A (Homo sapiens, UniProt O00443); experiment: Adapta kinase assay, PIK3C2A; type: biochemical; settings: average of three replicates
T2 construct: purchased ThermoFisher Scientific (Madison, WI, USA), contract service
Description: as §1
For the Adapta assay, compounds in DMSO (100 nL), 30 mM HEPES buffer (2.4 μL), substrate/kinase mixture (5 μL), and ATP solution (2.5 μL) were mixed in a white 384-well plate. Following a 30 s plate shake to mix the reagents and a 1 min centrifuge at 1000 g, the kinase assay mixture was incubated at RT for 60 min. Following addition of the detection mix (5 μL) to each well, 30 s plate shaking, and 1 min centrifuge at 1000 g, another 60 min incubation was performed at RT for equilibration. Fluorescent signals were recorded and subsequently analyzed.

[3] = system: GLI2 protein expression; experiment: Western blot GLI2 protein expression in ASZ001 cells; type: cell-based, murine; settings: 25 μM
Description: (§2) ASZ001 cells were plated as described above and treated with drugs or vehicle control. Following incubation, cells were washed with chilled PBS and lysed with RIPA buffer containing […] PMSF protease inhibitor (Thermo Scientific #26978). Supernatant was collected following 15 min centrifugation at 12,000 rpm and 4° C. Protein concentrations from cell extracts were determined through the BCA kit (Pierce #23228) per the manufacturer's instructions. Proteins from either cell lysate or cell-free biochemical assay were then loaded on 12% SDS-PAGE. Following electrophoresis, proteins were transferred onto nitrocellulose membrane at 100 V for 120 min at 4° C. On a clean tray with constant gentle shaking, the membrane was sequentially submerged in 5% BSA for 1 h, and incubated with the primary antibody indicated overnight at 4° C. After washes with TBST, the appropriate secondary antibody was added to the tray for a 2 h incubation at RT. Chemiluminescent detection on film was visualized using ECL reagents (BioRad #1705060) and subsequently quantitated using Image J (http://imagej.nih.gov). Primary antibodies were used at 1:2000 dilution and are as follows: GLI1 (#MA5-32553); Gli2 (#PA5-79314); β-Actin (#PA1-16889). Secondary antibody (Goat anti-Rabbit, #32460) was used at a 1:5000 dilution. All antibodies were purchased from Invitrogen.

[4] = system: GLI1 protein levels; experiment: Western blot GLI1 protein expression in ASZ001 cells; type: cell-based, murine; settings: 10 and 25 μM
Description: as §2

T2 sequence (O00443 whole entry): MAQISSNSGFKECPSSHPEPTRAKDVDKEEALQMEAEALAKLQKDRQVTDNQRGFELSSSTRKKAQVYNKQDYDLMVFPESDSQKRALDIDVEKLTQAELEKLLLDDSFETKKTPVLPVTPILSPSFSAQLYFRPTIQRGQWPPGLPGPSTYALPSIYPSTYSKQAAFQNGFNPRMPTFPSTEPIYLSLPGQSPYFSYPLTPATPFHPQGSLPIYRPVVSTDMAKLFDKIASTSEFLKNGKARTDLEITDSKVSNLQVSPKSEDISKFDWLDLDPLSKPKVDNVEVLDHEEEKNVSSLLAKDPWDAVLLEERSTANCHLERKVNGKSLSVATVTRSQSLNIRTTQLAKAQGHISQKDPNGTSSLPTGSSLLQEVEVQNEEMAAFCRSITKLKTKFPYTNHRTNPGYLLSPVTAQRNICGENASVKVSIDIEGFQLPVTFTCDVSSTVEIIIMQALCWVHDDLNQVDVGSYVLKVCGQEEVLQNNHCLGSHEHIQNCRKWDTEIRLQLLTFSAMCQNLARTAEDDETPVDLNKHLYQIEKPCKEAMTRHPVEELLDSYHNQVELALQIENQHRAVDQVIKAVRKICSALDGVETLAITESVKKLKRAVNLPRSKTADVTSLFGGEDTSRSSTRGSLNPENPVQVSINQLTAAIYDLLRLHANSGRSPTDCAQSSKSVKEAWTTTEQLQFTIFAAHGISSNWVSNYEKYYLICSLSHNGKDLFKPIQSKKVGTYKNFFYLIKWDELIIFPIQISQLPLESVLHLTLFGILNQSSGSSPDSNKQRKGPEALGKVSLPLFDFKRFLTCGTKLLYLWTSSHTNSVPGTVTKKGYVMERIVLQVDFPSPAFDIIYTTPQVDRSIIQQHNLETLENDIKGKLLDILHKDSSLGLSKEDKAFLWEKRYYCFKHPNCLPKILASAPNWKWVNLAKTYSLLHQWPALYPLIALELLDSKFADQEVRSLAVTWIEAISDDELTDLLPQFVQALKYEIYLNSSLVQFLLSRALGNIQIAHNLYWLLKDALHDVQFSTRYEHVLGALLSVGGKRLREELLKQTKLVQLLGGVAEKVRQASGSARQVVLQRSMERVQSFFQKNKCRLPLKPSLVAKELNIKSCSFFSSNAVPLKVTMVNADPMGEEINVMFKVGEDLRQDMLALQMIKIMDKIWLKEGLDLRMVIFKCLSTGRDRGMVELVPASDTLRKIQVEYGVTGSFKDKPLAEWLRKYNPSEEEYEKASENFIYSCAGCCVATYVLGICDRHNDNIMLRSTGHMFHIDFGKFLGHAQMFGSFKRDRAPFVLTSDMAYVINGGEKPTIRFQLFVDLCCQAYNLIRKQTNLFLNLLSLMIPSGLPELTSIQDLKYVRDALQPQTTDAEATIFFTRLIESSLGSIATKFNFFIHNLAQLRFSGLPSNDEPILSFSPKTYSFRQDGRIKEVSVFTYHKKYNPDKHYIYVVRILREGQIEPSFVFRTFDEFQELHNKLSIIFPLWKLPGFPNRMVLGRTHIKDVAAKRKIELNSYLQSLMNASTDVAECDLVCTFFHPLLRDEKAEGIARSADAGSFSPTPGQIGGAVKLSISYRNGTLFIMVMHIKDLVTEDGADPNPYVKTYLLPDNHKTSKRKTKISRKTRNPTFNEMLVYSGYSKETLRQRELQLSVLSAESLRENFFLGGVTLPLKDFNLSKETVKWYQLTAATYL
T1 sequence (P07949 29-1114): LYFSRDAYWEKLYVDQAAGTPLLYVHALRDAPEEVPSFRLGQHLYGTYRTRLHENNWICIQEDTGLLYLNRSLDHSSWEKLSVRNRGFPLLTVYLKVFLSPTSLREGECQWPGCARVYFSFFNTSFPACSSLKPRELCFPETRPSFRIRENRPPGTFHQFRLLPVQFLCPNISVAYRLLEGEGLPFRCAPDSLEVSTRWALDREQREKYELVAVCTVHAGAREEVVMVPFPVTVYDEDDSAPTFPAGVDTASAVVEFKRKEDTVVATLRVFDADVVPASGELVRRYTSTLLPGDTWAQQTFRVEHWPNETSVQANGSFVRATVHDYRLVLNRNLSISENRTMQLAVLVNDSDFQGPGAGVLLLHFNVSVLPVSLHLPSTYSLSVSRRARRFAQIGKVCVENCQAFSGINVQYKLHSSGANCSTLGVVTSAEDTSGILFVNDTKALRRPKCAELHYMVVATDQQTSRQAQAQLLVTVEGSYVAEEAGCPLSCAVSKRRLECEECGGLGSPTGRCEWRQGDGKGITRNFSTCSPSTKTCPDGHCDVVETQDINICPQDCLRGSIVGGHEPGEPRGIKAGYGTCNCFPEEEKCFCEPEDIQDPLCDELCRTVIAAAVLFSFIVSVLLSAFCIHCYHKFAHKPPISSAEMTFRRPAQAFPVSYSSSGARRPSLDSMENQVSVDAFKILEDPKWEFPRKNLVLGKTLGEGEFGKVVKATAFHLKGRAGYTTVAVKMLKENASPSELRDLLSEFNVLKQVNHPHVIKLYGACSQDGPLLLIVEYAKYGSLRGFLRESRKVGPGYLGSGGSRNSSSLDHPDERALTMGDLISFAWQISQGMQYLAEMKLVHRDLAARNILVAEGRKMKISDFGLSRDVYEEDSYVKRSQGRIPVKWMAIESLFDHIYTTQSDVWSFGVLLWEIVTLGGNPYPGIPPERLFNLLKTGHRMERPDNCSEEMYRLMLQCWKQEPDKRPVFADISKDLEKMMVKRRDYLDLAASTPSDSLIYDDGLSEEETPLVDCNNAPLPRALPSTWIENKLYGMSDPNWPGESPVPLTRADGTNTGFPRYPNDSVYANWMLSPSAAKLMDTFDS

Row | SMILES | inhibition at 1 µM [1] | inhibition at 1 µM [2] | GLI2 protein expression (in words) [3] | GLI1 protein levels (in words) [4]
1 | CCN(CC)c1ccc(C(Nc2ccccn2)c2ccc3ccc(C)nc3c2OC)cc1 (stereo not shown) [Compound 20, N-((4-Diethylaminophenyl)(8-methoxy-2-methylquinolin-7-yl)methyl)pyridin-2-amine] | 6% | 3% | – | –
2 | Cc1ccc2ccc(C(Nc3ccccn3)c3ccncc3)c(O)c2n1 (stereo not shown) [Compound 39, 7-((Pyridin-4-yl)(pyridin-2-ylamino)methyl)-2-methylquinolin-8-ol] | 8% | -1% | significantly suppressed | significantly reduced
3 | Cc1ccc2ccc(C(Nc3ccccn3)c3ccc(N4CCCC4=O)cc3)c(O)c2n1 (stereo not shown) [Compound 48, 7-((4-(2-Oxopyrrolidin-1-yl)phenyl)(pyridin-2-ylamino)methyl)-2-methylquinolin-8-ol] | 5% | 0% | significantly suppressed | significantly reduced
